From patent US11634425B2, “Pharmaceutical compounds” (priority 2019, dated 2023)
Where two headings read alike, the source gives them in different places.

Experiments:
RSV A2 = test: RSV plaque reduction assay; assay type: cell-based, respiratory syncytial virus (RSV); conditions: human respiratory syncytial virus, HepG2, Hep-G2 cells, mean of at least two experiments
In short: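 RSV A2 at 100 PFU/well was premixed with eight compound dilutions and added to confluent Hep-G2 monolayers for 2 h at 37 °C. Cells were then kept 2 days under a DMEM/2% FBS/0.8% CMC overlay containing compound. Immunostained plaques were counted relative to virus controls, and EC50 came from 4-parameter fits, averaged over at least two experiments.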

in vitro = in vitro ADME; conditions: microsomes, pH 7.4, 1 μM compound, 0.5 mg/mL protein, read-out: Liver Microsomal Stability t1/2
Description: Compounds were subjected to the following assays to investigate liver microsomal stability and hepatocyte stability.
Microsomal Incubation: Experimental Procedure
Pooled liver microsomes were purchased from a reputable commercial supplier and stored at −80° C. prior to use. Microsomes (final protein concentration 0.5 mg/mL), 0.1 M phosphate buffer pH 7.4 and test compound (final substrate concentration 1 μM; final DMSO concentration 0.25%) were pre-incubated at 37° C. prior to the addition of NADPH (final concentration 1 mM) to initiate the reaction. The final incubation volume was 50 μL. A control incubation was included for each compound tested where 0.1 M phosphate buffer pH 7.4 was added instead of NADPH (minus NADPH). Two control compounds were included with each species. All incubations were performed singularly for each test compound. Each compound was incubated for 0, 5, 15, 30 and 45 min. The control (minus NADPH) was incubated for 45 min only. The reactions were stopped by transferring incubate into acetonitrile at the appropriate time points, in a 1:3 ratio. The termination plates are centrifuged at 3,000 rpm for 20 min at 4° C. to precipitate the protein. Following protein precipitation, the sample supernatants were combined in cassettes of up to 4 compounds, internal standard added, and samples analysed by LC-MS/MS. From a plot of ln peak area ratio (compound peak area/internal standard peak area) against time, the gradient of the line was determined. Subsequently, half-life (t1/2) and intrinsic clearance (CLint) were calculated.

Cell cytotoxicity (CC50) = assay type: cell-based; conditions: human; mean of at least two experiments
In short: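 Values are means of ≥2 independent runs, rounded to whole units, from 4-parameter variable-slope curve fits. Toxicity measured in Hep-G2 cells run alongside RSV plaque-reduction assays.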

Structure (SMILES)	EC50 (RSV A2) [nM]	half-life at 1 μM (in vitro; dog) [h]	half-life at 1 μM (in vitro; human) [h]	half-life at 1 μM (in vitro; rat) [h]	CC50 (Cell cytotoxicity (CC50)) [nM]
CNc1ccc(-c2nn3cccnc3c2C(=O)N[C@H]2N=C(c3ccccc3)c3ccccc3NC2=O)cc1 [Example 1, 2-[4-(Methylamino)phenyl]-N-[(3S)-2-oxo-5-phenyl-1,3-dihydro-1,4-benzodiazepin-3-yl]pyrazolo[1,5-a]pyrimidine-3-carboxamide]	35	1.25	1.22	0.678	> 25000
O=C(N[C@H]1N=C(c2ccccc2)c2ccccc2NC1=O)c1c(-c2ccc(F)cc2F)nn2cccnc12 [Example 4, 2-(2,4-difluorophenyl)-N-[(3S)-2-oxo-5-phenyl-1,3-dihydro-1,4-benzodiazepin-3-yl]pyrazolo[1,5-a]pyrimidine-3-carboxamide]	62	3.93	> 2.33	> 2.33	> 25000
O=C(N[C@H]1N=C(c2ccccc2)c2cccc(F)c2NC1=O)c1c(-c2ccc(F)cc2F)nn2cccnc12 [Example 5, 2-(2,4-Difluorophenyl)-N-[(3S)-9-fluoro-2-oxo-5-phenyl-1,3-dihydro-1,4-benzodiazepin-3-yl]pyrazolo[1,5-a]pyrimidine-3-carboxamide]	39	5.93	> 2.33	> 2.33	> 25000
O=C(N[C@H]1N=C(c2ccccc2)c2cccc(F)c2NC1=O)c1c(-c2cc(F)ccc2F)nn2cccnc12 [Example 7, 2-(2,5-Difluorophenyl)-N-[(3S)-9-fluoro-2-oxo-5-phenyl-1,3-dihydro-1,4-benzodiazepin-3-yl]pyrazolo[1,5-a]pyrimidine-3-carboxamide]	107	2.5	10.7	2.08	> 25000
O=C(N[C@H]1N=C(c2ccccc2)c2cccc(F)c2NC1=O)c1c(-c2ccccc2Cl)nn2cccnc12 [Example 10, 2-(2-Chlorophenyl)-N-[(3S)-9-fluoro-2-oxo-5-phenyl-1,3-dihydro-1,4-benzodiazepin-3-yl]pyrazolo[1,5-a]pyrimidine-3-carboxamide]	77	6.33	> 2.33	1.83	21100
O=C(N[C@H]1N=C(c2ccccc2)c2ccccc2NC1=O)c1c(-c2ccccc2)nn2cccnc12 [Example 12, N-[(3S)-2-oxo-5-phenyl-1,3-dihydro-1,4-benzodiazepin-3-yl]-2-phenylpyrazolo[1,5-a]pyrimidine-3-carboxamide]	153	3.87	4.4	> 2.33	> 25000
COc1ccc(-c2nn3cccnc3c2C(=O)N[C@H]2N=C(c3ccccc3)c3ccccc3NC2=O)c(F)c1 [Example 14, 2-(2-Fluoro-4-methoxyphenyl)-N-[(3S)-2-oxo-5-phenyl-1,3-dihydro-1,4-benzodiazepin-3-yl]pyrazolo[1,5-a]pyrimidine-3-carboxamide]	41	1.33	> 2.33	2.72	> 25000
CNc1ccc(-c2nn3cccnc3c2C(=O)N[C@H]2N=C(c3ccccc3)c3ccccc3NC2=O)c(F)c1 [Example 16, 2-[2-Fluoro-4-(methylamino)phenyl]-N-[(3S)-2-oxo-5-phenyl-1,3-dihydro-1,4-benzodiazepin-3-yl]pyrazolo[1,5-a]pyrimidine-3-carboxamide]	18	0.657	1.5	0.652	> 25000
Cc1nn2cc(-c3ccoc3)cnc2c1C(=O)N[C@H]1N=C(c2ccccc2)c2cccc(F)c2NC1=O [Example 24, N-[(3S)-9-Fluoro-2-oxo-5-phenyl-1,3-dihydro-1,4-benzodiazepin-3-yl]-6-(furan-3-yl)-2-methylpyrazolo[1,5-a]pyrimidine-3-carboxamide]	104	1.98	> 2.33	0.427	> 25000
